Target: human APJ receptor (Homo sapiens (Human), UniProt P35414)
Assay: [35S]GTPγS binding assay on membranes from CHO cells stably expressing human APJ receptor
Type: biochemical
Conditions: membranes of CHO cells stably expressing human APJ receptor, read-out: Activity hAPJ SPA EC50 IP
How it was run: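 Agonist EC50 values come from non-linear regression of mean data from several independent runs. Membranes of CHO cells stably expressing human APJ were incubated 90 min at room temperature with [35S]GTPγS in buffer with optimized GDP, MgCl2 and NaCl, then read on a microplate imager.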

human APJ receptor, sequence (P35414 whole entry): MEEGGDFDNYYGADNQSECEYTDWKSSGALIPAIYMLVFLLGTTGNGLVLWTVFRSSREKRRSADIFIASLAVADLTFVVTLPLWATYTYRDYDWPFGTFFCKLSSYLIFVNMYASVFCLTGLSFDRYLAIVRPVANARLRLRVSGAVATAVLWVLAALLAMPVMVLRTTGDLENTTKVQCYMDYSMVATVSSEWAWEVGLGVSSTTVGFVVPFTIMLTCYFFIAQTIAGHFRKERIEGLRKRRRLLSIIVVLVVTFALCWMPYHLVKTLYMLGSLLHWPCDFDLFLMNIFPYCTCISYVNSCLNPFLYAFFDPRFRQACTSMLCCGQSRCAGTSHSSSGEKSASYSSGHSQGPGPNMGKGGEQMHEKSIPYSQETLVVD

Row | Structure (SMILES) | EC50
1 | COc1cccc(-c2nnc(NS(=O)(=O)[C@@H](C)[C@H](OC)c3ncc(Cl)cn3)n2[C@@H](C)c2c(C)noc2C)n1 (racemic) [Example 310.0, (1R,2S)-1-(5-chloropyrimidin-2-yl)-N-(4-((R)-1-(3,5-dimethylisoxazol-4-yl)ethyl)-5-(6-methoxypyridin-2-yl)-4H-1,2,4-triazol-3-yl)-1-methoxypropane-2-sulfonamide or (1R,2S)-1-(5-chloropyrimidin-2-yl)-N-(4-((S)-1-(3,5-dimethylisoxazol-4-yl)ethyl)-5-(6-methoxypyridin-2-yl)-4H-1,2,4-triazol-3-yl)-1-methoxypropane-2-sulfonamide] | 7.4 nM
2 | COc1cccc(-c2nnc(NS(=O)(=O)[C@@H](C)[C@H](C)c3ncc(Cl)cn3)n2C[C@H]2CCCO2)n1 (racemic) [Example 282.0, (2S,3R)-3-(5-chloropyrimidin-2-yl)-N-(5-(6-methoxypyridin-2-yl)-4-(((R)-tetrahydrofuran-2-yl)methyl)-4H-1,2,4-triazol-3-yl)butane-2-sulfonamide or (2S,3R)-3-(5-chloropyrimidin-2-yl)-N-(5-(6-methoxypyridin-2-yl)-4-(((S)-tetrahydrofuran-2-yl)methyl)-4H-1,2,4-triazol-3-yl)butane-2-sulfonamide] | 54 nM
3 | COc1cccc(-c2nnc(NS(=O)(=O)[C@@H](C)[C@H](OC)c3ncc(Cl)cn3)n2[C@H](C)c2cncs2)n1 (single isomer, unassigned) [Example 346.0, (1R,2S)-1-(5-chloropyrimidin-2-yl)-1-methoxy-N-(5-(6-methoxypyridin-2-yl)-4-((R)-1-(thiazol-5-yl)ethyl)-4H-1,2,4-triazol-3-yl)propane-2-sulfonamide or (1R,2S)-1-(5-chloropyrimidin-2-yl)-1-methoxy-N-(5-(6-methoxypyridin-2-yl)-4-((S)-1-(thiazol-5-yl)ethyl)-4H-1,2,4-triazol-3-yl)propane-2-sulfonamide] | 4.4 nM
4 | CC[C@@H](c1conc1C)n1c(NS(=O)(=O)[C@@H](C)[C@H](C)c2ncc(Cl)cn2)nnc1-c1cccc(OC)n1 (single isomer, unassigned) [Example 232.0, (2S,3R)-3-(5-chloro-2-pyrimidinyl)-N-(5-(6-methoxy-2-pyridinyl)-4-((1R)-1-(3-methyl-1,2-oxazol-4-yl)propyl)-4H-1,2,4-triazol-3-yl)-2-butanesulfonamide or (2S,3R)-3-(5-chloro-2-pyrimidinyl)-N-(5-(6-methoxy-2-pyridinyl)-4-((1S)-1-(3-methyl-1,2-oxazol-4-yl)propyl)-4H-1,2,4-triazol-3-yl)-2-butanesulfonamide] | 1.5 nM
5 | COc1cccc(-c2nnc(NS(=O)(=O)[C@@H](C)[C@H](C)c3ncc(Cl)cn3)n2[C@@H](C)c2ccno2)n1 (mixture of isomers) [Example 201.0, (2S,3R)-3-(5-chloro-2-pyrimidinyl)-N-(5-(6-methoxy-2-pyridinyl)-4-((1R)-1-(1,2-oxazol-5-yl)ethyl)-4H-1,2,4-triazol-3-yl)-2-butanesulfonamide and (2S,3R)-3-(5-chloro-2-pyrimidinyl)-N-(5-(6-methoxy-2-pyridinyl)-4-((1S)-1-(1,2-oxazol-5-yl)ethyl)-4H-1,2,4-triazol-3-yl)-2-butanesulfonamide] | 3.5 nM
6 | COc1cccc(-c2nnc(NS(=O)(=O)[C@@H](C)[C@H](OC)c3ncc(Cl)cn3)n2C[C@@H]2COCCO2)n1 (racemic) [Example 303.0, (1R,2S)-N-(4-(((R)-1,4-dioxan-2-yl)methyl)-5-(6-methoxypyridin-2-yl)-4H-1,2,4-triazol-3-yl)-1-(5-chloropyrimidin-2-yl)-1-methoxypropane-2-sulfonamide or (1R,2S)-N-(4-(((S)-1,4-dioxan-2-yl)methyl)-5-(6-methoxypyridin-2-yl)-4H-1,2,4-triazol-3-yl)-1-(5-chloropyrimidin-2-yl)-1-methoxypropane-2-sulfonamide] | 27 nM
7 | COc1cccc(-c2nnc(NS(=O)(=O)[C@@H](C)[C@H](OC)c3ncc(Cl)cn3)n2CC2CCOCC2)n1 [Example 302.0, (1R,2S)-1-(5-chloropyrimidin-2-yl)-1-methoxy-N-(5-(6-methoxypyridin-2-yl)-4-((tetrahydro-2H-pyran-4-yl)methyl)-4H-1,2,4-triazol-3-yl)propane-2-sulfonamide] | 53 nM
8 | COCC1(n2c(NS(=O)(=O)[C@@H](C)[C@H](OC)c3ncc(Cl)cn3)nnc2-c2cccc(OC)n2)CCC1 [Example 50.0] | 0.46 nM
9 | COC[C@@H](C)n1c(NS(=O)(=O)[C@@H](C)[C@H](OC)c2ncc(Cl)cn2)nnc1-c1ccccn1 [Example 124.0] | 24 nM
10 | COc1cccc(-c2nnc(NS(=O)(=O)[C@@H](C)[C@H](C)c3ncc(Cl)cn3)n2Cc2cc(C(F)(F)F)no2)n1 [Example 204.0, (2S,3R)-3-(5-chloro-2-pyrimidinyl)-N-(5-(6-methoxy-2-pyridinyl)-4-((3-(trifluoromethyl)-1,2-oxazol-5-yl)methyl)-4H-1,2,4-triazol-3-yl)-2-butanesulfonamide] | 21 nM
11 | COc1cccc(-c2nnc(NS(=O)(=O)[C@@H](C)[C@H](OC)c3ncc(Cl)cn3)n2[C@@H](C)c2ccno2)n1 (mixture of isomers) [Example 200.0, (1R,2S)-1-(5-chloro-2-pyrimidinyl)-1-methoxy-N-(5-(6-methoxy-2-pyridinyl)-4-((1R)-1-(1,2-oxazol-5-yl)ethyl)-4H-1,2,4-triazol-3-yl)-2-propanesulfonamide and (1R,2S)-1-(5-chloro-2-pyrimidinyl)-1-methoxy-N-(5-(6-methoxy-2-pyridinyl)-4-((1S)-1-(1,2-oxazol-5-yl)ethyl)-4H-1,2,4-triazol-3-yl)-2-propanesulfonamide] | 0.87 nM
12 | CO[C@H](c1ncc(Cl)cn1)[C@H](C)S(=O)(=O)Nc1nnc(-c2ccccn2)n1C(C1CC1)C1CC1 [Example 46.0] | 0.33 nM
13 | COc1cccc(-c2nnc(NS(=O)(=O)[C@@H](C)[C@H](OC)c3ncc(Cl)cn3)n2[C@H](C)c2cscn2)n1 (single isomer, unassigned) [Example 345.0, (1R,2S)-1-(5-chloropyrimidin-2-yl)-1-methoxy-N-(5-(6-methoxypyridin-2-yl)-4-((S)-1-(thiazol-4-yl)ethyl)-4H-1,2,4-triazol-3-yl)propane-2-sulfonamide or (1R,2 S)-1-(5-chloropyrimidin-2-yl)-1-methoxy-N-(5-(6-methoxypyridin-2-yl)-4-((R)-1-(thiazol-4-yl)ethyl)-4H-1,2,4-triazol-3-yl)propane-2-sulfonamide] | 1.1 nM
14 | CO[C@H](c1ncc(Cl)cn1)[C@H](C)S(=O)(=O)Nc1nnc(-c2cncc(C)c2)n1C[C@H]1CCCCO1 (mixture of isomers) [Example 299.0, (1R,2S)-1-(5-chloropyrimidin-2-yl)-1-methoxy-N-(5-(5-methylpyridin-3-yl)-4-(((R)-tetrahydro-2H-pyran-2-yl)methyl)-4H-1,2,4-triazol-3-yl)propane-2-sulfonamide and (1R,2S)-1-(5-chloropyrimidin-2-yl)-1-methoxy-N-(5-(5-methylpyridin-3-yl)-4-(((S)-tetrahydro-2H-pyran-2-yl)methyl)-4H-1,2,4-triazol-3-yl)propane-2-sulfonamide] | 120 nM

From patent US10689367B2, “Triazole pyridyl compounds as agonists of the APJ receptor” (AMGEN INC., priority 2016, dated 2020)
